{
  "source": "patent US20250152659A1",
  "about": "“METHOD FOR PREVENTING OR TREATING PARKINSON'S DISEASE” (Suzhou Mingren Pharmaceutical Biotechnology Co., Ltd., priority 2022, published 2025)",
  "key": {"SH-SYSY cells": {"system": "SH-SYSY cells", "assay": "CCK8 cell viability assay, rotenone toxicity", "assay_type": "cell-based, human", "conditions": "Rot 2.5 μM and JP1 25, 50, 100 μM, 24 and 48 hours, dose-dependent", "protocol": "(§1) The example is to evaluate the protective effects of JP1 on the viability of mouse hippocampal neuronal cells HT-22 and human […] cells (SH-SYSY) induced by Rotenone (Rot) (CCK8 assay).\n(§2) 1) Cell culture and treatment: The human neuroblastoma cell line SH-SYSY and the mouse hippocampal neuron cell line HT-22 were cultured in DMEM medium containing 100 µg/mL streptomycin, 100 U/mL penicillin, and 10% fetal bovine serum at 37° C. in a 5% CO2 environment. The cells were treated with Rotenone (2.5 μM) and JWA targeting peptide JP1 (0, 25, 50, 100 μM) for 24 and 48 hours, respectively. Model cells were tested for cell viability using CCK8 assay, expression levels of inflammasome 3 (NLRP3) and apoptosis related proteins (PARP1, Cleaved caspase1, 3, 9) using Western Blot, and mitochondrial membrane potential (JC1) and intracellular reactive oxygen species (ROS) levels using immunofluorescence staining.\n(§3) Cells were inoculated in a 96-well plate at a density of 8000 cells/well for adherence for 24 hours. The culture medium was discarded and the cells were incubated for 24 and 48 hours with different concentrations of the drug. […] The absorbance value was read by an enzyme immunoassay detector at 450 nm. The cell viability (3 parallel samples in each group, and repeat 3 times) was calculated."}, "HT-22 cells": {"system": "HT-22 cells", "assay": "CCK8 cell viability assay, rotenone toxicity", "assay_type": "cell-based, mouse", "conditions": "Rot 2.5 μM and JP1 25, 50, 100 μM, 24 and 48 hours, dose-dependent", "protocol": "as §1, §2, §3"}, "[1]": {"conditions": "background statement; cited from earlier work"}},
  "note": "Where a SMILES comes first, the peptide text is derived from it. [ ]: non-standard residue; d: D form. pS = N[C@@H](COP(=O)(O)O)C(=O)O",
  "data": [
    {"smiles": "N=C(N)NCCC[C@H](NC(=O)[C@H](Cc1ccccc1)NC(=O)[C@H](CCCNC(=N)N)NC(=O)[C@H](CC(=O)O)NC(=O)[C@H](COP(=O)(O)O)NC(=O)CNC(=O)[C@@H]1CCCN1C(=O)[C@@H](N)Cc1ccccc1)C(=O)NCC(=O)N[C@@H](CC(=O)O)C(=O)O", "note": "[JP1] (H-FPG[pS]DRFRGD-OH)", "values": [
      {"measurement": "cell viability, protection against cytotoxicity of Rot", "setting": "SH-SYSY cells", "value": "significant protective effect"},
      {"measurement": "cell viability, protection against cytotoxicity of Rot", "setting": "HT-22 cells", "value": "significant protective effect"},
      {"measurement": "crossing the blood-brain barrier", "setting": "[1]", "value": "can cross the blood-brain barrier"}
    ]}
  ]
}
